Here are results for two molecules from patent US9561276B2, “Method of treating onychomycosis” (DUSA PHARMACEUTICALS, INC., priority 2012, dated 2017).

Where a name gives a salt, the structure may show the parent alone. Bounds are passed on as bounds.

In one data set the test system is mouse skin. To be noted: cited from earlier work.
Data set [1] deals with onychomycosis of the toenail. The data set can be described thus: ALA-based PDT of onychomycosis with 10 day delay before red light (Example 1). Here is the method: A 5 percent ALA solution was prepared by dilution of 20 percent ALA Topical Solution (Levulan® Kerastick® (aminolevulinic acid HCl) for Topical Solution, 20%). The ALA solution was then applied to a healthy volunteer suffering from mild to moderate onychomycosis involving the hallux (proximal or big toe) toenail and the second toenail of the left foot. The ALA solution was applied liberally to the nail surface and the periungual skin areas. The entire toe was wrapped in an occlusive dressing (Tegaderm®) for 12 hours. Twenty-four hours post ALA application, the treated area was examined for porphryin fluorescence using a long wave UV light (Wood's Light) as an excitation source.
The subject was instructed to avoid light exposure to the treated toes. Fluorescence evaluation was performed again 10 days post ALA application.
The subject was then treated with 100 Joules/cm^2 of red light using the Sciencetech 7500 illuminator, causing an activation reaction.
The subject was again instructed to avoid light exposure to the treated toes. Follow up evaluations were performed 5 and 20 days post light treatment (15 and 30 days post ALA application).

The next data set concerns acne lesions. Conditions: in vivo; cited from earlier work.
For data set [2], the system named is onychomycosis of the toenail. Conditions: in vivo; cited from earlier work.
The test system of another data set is onychomycosis. To be noted: cited from earlier work.
[3] abbreviates: 100 Joules/cm^2 red light 10 days post ALA.

Take `NCC(=O)CCC(=O)O` [ALA, aminolevulinic acid]: in the data set on mouse skin, the “time for protoporphyrin levels to return to near pretreatment baseline” value is “about 18 hours” and the “time to peak protoporphyrin IX concentration” value is “about six”. Moreover, in data set [1] (setting [3]), the “sensation during light treatment, proximal toe” value is “only mild tingling and slight stinging”; the “sensation during light treatment, second toe” value was “little to no sensation”. For the same molecule, in data set [1] (5 days post light treatment), the “local reaction (edema, redness), proximal toe” value was “only slight edema in the area around the nail plate, and mild redness of the nail bed itself”; the “local reaction (redness), second toe” value is on record as “only slight redness in the nail bed”. In addition, in data set [1] (20 days after exposure to the activating red light), the “appearance of treated toes” value is given as “both treated toes appeared normal”. Besides, in data set [1] (noted by subject), the “adverse effects associated with the treatment” value is listed as “no adverse effects”. The “time until ability of light to specifically excite protoporphyrin IX disappeared” value with acne lesions is ≤ 24 h. In data set [2], the local adverse reaction result was “redness and edema (swelling)”.

Take `CN(C/C=C/C#CC(C)(C)C)Cc1cccc2ccccc12` [terbinafine, terbinafine hydrochloride]: the “adverse events unrelated to the treatment site” value in the data set on onychomycosis (in vivo, po) was “gastrointestinal disorders, rashes, disruption of the sense of taste, and liver disorders”. In the data set with onychomycosis (oral, complete course of treatment (every day for three months)), the complete clearance entry is recorded as “only a minority of cases”.
